From PMC8304516, “A Fungal Defensin Targets the SARS−CoV−2 Spike Receptor−Binding Domain” (Journal of Fungi, 2021)
Bridge positions count the residues as written; N and C are the ends. Peptide text beside a SMILES is read from it.

Legend:
[1] = target: Spike RBD (SARS-CoV-2) (UniProt P0DTC2); details: cited from earlier work
[2] = target: SARS−CoV−2 Spike RBD (Severe acute respiratory syndrome coronavirus 2, UniProt P0DTC2); assay: biochemical; assay type: binding; details: KD; SD
[3] = target: RBD; details: binding to RBD; cited from earlier work

For “human beta-defensin 2 (from UniProt O15263)”, the Kd [1] is listed as 300 nM.
Molecule `CC[C@H](C)[C@@H]1NC(=O)[C@H](CO)NC(=O)[C@H](CC(C)C)NC(=O)[C@@H]2CSSC[C@@H](C(=O)NCC(=O)N[C@@H](CCCCN)C(=O)N[C@@H](CCC(N)=O)C(=O)O)NC(=O)[C@H]([C@@H](C)O)NC(=O)[C@@H]3CSSC[C@H](NC(=O)[C@H](CCC(=O)O)NC(=O)[C@H](CC(N)=O)NC(=O)[C@H](CCCCN)NC(=O)[C@H](CC(N)=O)NC(=O)[C@H](Cc4ccccc4)NC(=O)[C@@H]4CCCN4C(=O)[C@@H](NC(=O)CNC(=O)[C@H](Cc4ccccc4)NC(=O)CN)CSSC[C@H](NC(=O)[C@H](Cc4ccccc4)NC(=O)CNC(=O)[C@H](Cc4ccccc4)NC(=O)[C@H](CCCCN)NC(=O)[C@H](CCCNC(=N)N)NC(=O)CNC1=O)C(=O)N[C@@H](C)C(=O)NCC(=O)N1CCC[C@H]1C(=O)N[C@@H](CC(C)C)C(=O)N[C@@H](CCCNC(=N)N)C(=O)N[C@@H](C)C(=O)N[C@@H]([C@@H](C)O)C(=O)N3)C(=O)N[C@@H](Cc1c[nH]cn1)C(=O)N[C@@H](C)C(=O)N[C@@H](Cc1c[nH]cn1)C(=O)N2` [rE8K] (H-GFGCPFNKNECHAHCLSIGRKFGFCAGPLRATCTCGKQ-OH; disulfide 4-25, 11-33, 15-35) has a Kd [2] of 1900 ± 570 nM.
For human β−defensin 2 [hBD−2], the Kd [3] is given as ~300 nM.
